Assay results as given in patent US11993578B2, “Pyrazole-3-carboxylic acid amide derivative and pest control agent” (KUMIAI CHEMICAL INDUSTRY CO., LTD., priority 2017, dated 2024).

Tested on: Aphis gossypii
Test: Aphis gossypii killing test (Test Example 3)
Format: in vivo
Conditions: 72 h, 500 ppm active ingredient, cucumber nursery plant with nymphs dipped, after 3 days, 25° C., read-out: percentage of dead insects
Experimental: [formula] The water-dispersible powder prepared in accordance with Formulation example 2 was diluted in water so that the concentration of the active ingredient was 500 ppm. A nursery plant of cucumber preliminarily inoculated with nymphs of Aphis gossypii was dipped in this liquid agent, and air-dried. The nursery plant of cucumber after the treatment was placed in a thermostatic chamber at 25° C., and the number of live insects was counted after 3 days, and the percentage of dead insects was determined by the calculation formula of numerical formula 1. The test was conducted singly.

NC(=O)c1nn(-c2cccnc2)cc1O [Compound A-0001, 4-hydroxy-1-(pyridine-3-yl)-1H-pyrazole-3-carboxamide]
pest or weed control at 500 ppm: ≥ 50%

CC(C)(C)CCOc1cn(-c2cccnc2)nc1C(N)=O [Compound A-0017, 4-(3,3-dimethylbutoxy)-1-(pyridine-3-yl)-1H-pyrazole-3-carboxamide]
pest or weed control at 500 ppm: ≥ 50%

NC(=O)c1nn(-c2cccnc2)cc1OCC(F)(F)C(F)(F)F [Compound A-0044, 4-(2,2,3,3,3-pentafluoropropoxy)-1-(pyridine-3-yl)-1H-pyrazole-3-carboxamide]
pest or weed control at 500 ppm: ≥ 50%

NC(=O)c1nn(-c2cccnc2)cc1OC(F)(F)C(F)OC(F)(F)F (centres unmarked) [Compound A-0071, 1-(pyridine-3-yl)-4-[1,1,2-trifluoro-2-(trifluoromethoxy)ethoxy]-1H-pyrazole-3-carboxamide]
pest or weed control at 500 ppm: ≥ 50%

NC(=O)c1nn(-c2cccnc2)cc1OCc1ccccc1 [Compound A-0240, 4-benzyloxy-1-(pyridine-3-yl)-1H-pyrazole-3-carboxamide]
pest or weed control at 500 ppm: ≥ 50%

CC(C)C(=O)NC(=O)c1nn(-c2cccnc2)cc1OC(F)(F)C(F)OC(F)(F)F (centres unmarked) [Compound A-2403, N-isobutyryl-1-(pyridine-3-yl)-4-[1,1,2-trifluoro-2-(trifluoromethoxy)ethoxy]-1H-pyrazole-3-carboxamide]
pest or weed control at 500 ppm: ≥ 50%

NC(=S)c1nn(-c2cccnc2)cc1OC(F)(F)C(F)OC(F)(F)F (centres unmarked) [Compound A-5436, 1-(pyridine-3-yl)-4-[1,1,2-trifluoro-2-(trifluoromethoxy)ethoxy]-1H-pyrazole-3-carbothioamide]
pest or weed control at 500 ppm: ≥ 50%

NC(=O)c1nn(-c2ccc[n+]([O-])c2)cc1OC(F)(F)C(F)OC(F)(F)F (centres unmarked) [Compound A-5510, 3-(3-carbamoyl-4-[1,1,2-trifluoro-2-(trifluoromethoxy)ethoxy]-1H-pyrazole-1-yl)pyridine-1-oxide]
pest or weed control at 500 ppm: ≥ 50%
